Assay results taken from PubChem BioAssay AID330 (DTP/NCI, 2004).
“And” between values parts separate entries of the source, which are not always exact repeats. Equal values may be shown once. Toxic doses and inconclusive results are not listed.

Tested on: P388 leukemia ip, CD2F1 mice, survival T/C
Experiment: NCI In Vivo Anticancer Drug Screen. Data for tumor model P388 Leukemia (intraperitoneal) in CD2F1 (CDF1) mice
Settings: endpoint: median survival time, higher = longer survival
Method in brief: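 Mice carrying the transplanted tumor received test compound or vehicle. Survival was recorded in each group, and the value is the treated-group measurement divided by that of the vehicle-treated control group.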

[1] = dose: 50.0 mg/kg/injection, schedule: Q01DX005 (ip), vehicle: saline with Tween-80
[2] = dose: 100.0 mg/kg/injection, schedule: Q01DX005 (ip), vehicle: saline with Tween-80
[3] = dose: 60.0 mg/kg/injection, schedule: Q01DX005 (ip), vehicle: saline with Tween-80
[4] = dose: 120.0 mg/kg/injection, schedule: Q01DX005 (ip), vehicle: saline with Tween-80
[5] = dose: 240.0 mg/kg/injection, schedule: Q01DX005 (ip), vehicle: saline with Tween-80
[6] = dose: 100.0 mg/kg/injection, schedule: Q04DX003 (ip), vehicle: saline
[7] = dose: 200.0 mg/kg/injection, schedule: Q04DX003 (ip), vehicle: saline
[8] = dose: 50.0 mg/kg/injection, schedule: Q01DX009 (ip), vehicle: saline with Tween-80
[9] = dose: 100.0 mg/kg/injection, schedule: Q01DX009 (ip), vehicle: saline with Tween-80
[10] = dose: 200.0 mg/kg/injection, schedule: Q01DX009 (ip), vehicle: saline with Tween-80
[11] = dose: 50.0 mg/kg/injection, schedule: Q01DX005 (ip), vehicle: Klucel (hydroxypropylcellulose) (HPC)
[12] = dose: 100.0 mg/kg/injection, schedule: Q01DX005 (ip), vehicle: Klucel (hydroxypropylcellulose) (HPC)

Structure (SMILES): N#CCc1c(Cl)n(-c2ccccc2)c2ccccc12
- T/C (dose: 100.0 mg/kg/injection, schedule: Q01DX001 (ip), vehicle: Klucel (hydroxypropylcellulose) (HPC)): 101 % of control
- T/C (dose: 200.0 mg/kg/injection, schedule: Q01DX001 (ip), vehicle: Klucel (hydroxypropylcellulose) (HPC)): 93 % of control
- T/C (dose: 400.0 mg/kg/injection, schedule: Q01DX001 (ip), vehicle: Klucel (hydroxypropylcellulose) (HPC)): 88 % of control

Structure (SMILES): OCc1c(CO)c(-c2ccc(Cl)cc2)n2c1CCC2
- T/C (dose: 12.5 mg/kg/injection, schedule: Q01DX005 (ip), vehicle: distilled water + Tween-80): 120 % of control
- T/C (dose: 25.0 mg/kg/injection, schedule: Q01DX005 (ip), vehicle: distilled water + Tween-80): 111 % of control and 120 % of control
- T/C (dose: 50.0 mg/kg/injection, schedule: Q01DX005 (ip), vehicle: distilled water + Tween-80): 112 % of control
- T/C (dose: 100.0 mg/kg/injection, schedule: Q01DX005 (ip), vehicle: distilled water + Tween-80): 156 % of control
- T/C (dose: 200.0 mg/kg/injection, schedule: Q01DX005 (ip), vehicle: distilled water + Tween-80): 186 % of control
- T/C (dose: 400.0 mg/kg/injection, schedule: Q01DX005 (ip), vehicle: distilled water + Tween-80): 157 % of control

Structure (SMILES): Clc1nnn(-c2ccccc2)n1
- T/C (dose: 62.5 mg/kg/injection, schedule: Q04DX002 (ip), vehicle: saline with Tween-80): 101 % of control
- T/C (dose: 125.0 mg/kg/injection, schedule: Q04DX002 (ip), vehicle: saline with Tween-80): 100 % of control

Structure (SMILES): O=C(Nc1ccc(CCc2ccc(NC(=O)C34CC5CC(CC(C5)C3)C4)cc2)cc1)C12CC3CC(CC(C3)C1)C2
- T/C [1]: 96 % of control
- T/C [2]: 90 % of control

Structure (SMILES): COc1cc(-c2nnc(C3CCC(=O)N3Cc3ccccc3)o2)cc(OC)c1OC (centres undefined)
- T/C [3]: 103 % of control
- T/C [4]: 100 % of control
- T/C [5]: 97 % of control

Structure (SMILES): CNCC(CO)C(C)(C)C (centres undefined)
- T/C [6]: 101 % of control
- T/C [7]: 92 % of control

Structure (SMILES): c1ccc2c(c1)OCCN1CCNC21 (centres undefined)
- T/C [6]: 100 % of control
- T/C [7]: 102 % of control
- T/C (dose: 400.0 mg/kg/injection, schedule: Q04DX003 (ip), vehicle: saline): 101 % of control

Structure (SMILES): O=C(O)C1=C(/C=C(/c2ccccc2)c2ccc(Cl)cc2)OCCC1
- T/C [8]: 90 % of control
- T/C [9]: 94 % of control
- T/C [10]: 105 % of control

Structure (SMILES): CC(=O)OCC1OC(S[As](C2CCCCC2)C2CCCCC2)C(OC(C)=O)C(OC(C)=O)C1OC(C)=O (centres undefined)
- T/C (dose: 25.0 mg/kg/injection, schedule: Q04DX003 (ip), vehicle: Klucel (hydroxypropylcellulose) (HPC)): 109 % of control
- T/C (dose: 50.0 mg/kg/injection, schedule: Q04DX003 (ip), vehicle: Klucel (hydroxypropylcellulose) (HPC)): 116 % of control

Structure (SMILES): O=C(O)C(O)C(O)C(=O)O.[Bi].[Na+] (centres undefined)
- T/C (dose: 12.5 mg/kg/injection, schedule: Q01DX009 (ip), vehicle: saline): 113 % of control
- T/C (dose: 25.0 mg/kg/injection, schedule: Q01DX009 (ip), vehicle: saline): 115 % of control
- T/C (dose: 50.0 mg/kg/injection, schedule: Q01DX009 (ip), vehicle: saline): 87 % of control and 98 % of control
- T/C (dose: 100.0 mg/kg/injection, schedule: Q01DX009 (ip), vehicle: saline): 93 % of control

Structure (SMILES): C=CCOc1ccncc1
- T/C (dose: 12.5 mg/kg/injection, schedule: Q01DX009 (ip), vehicle: saline with Tween-80): 100 % of control
- T/C (dose: 25.0 mg/kg/injection, schedule: Q01DX009 (ip), vehicle: saline with Tween-80): 95 % of control
- T/C [8]: 90 % of control

Structure (SMILES): COc1ccc2c(c1)-c1nn(CCO)c(-c3cccnc3)c1CC2
- T/C (dose: 100.0 mg/kg/injection, schedule: Q04DX002 (ip), vehicle: DMSO): 94 % of control
- T/C (dose: 200.0 mg/kg/injection, schedule: Q04DX002 (ip), vehicle: DMSO): 102 % of control

Structure (SMILES): COc1ccc(CSC(=S)Nc2cc(C)c(C)cc2[N+](=O)[O-])cc1
- T/C (dose: 50.0 mg/kg/injection, schedule: Q01DX009 (ip), vehicle: suspension in saline): 93 % of control
- T/C (dose: 100.0 mg/kg/injection, schedule: Q01DX009 (ip), vehicle: suspension in saline): 97 % of control
- T/C (dose: 200.0 mg/kg/injection, schedule: Q01DX009 (ip), vehicle: suspension in saline): 97 % of control

Structure (SMILES): O=C1c2ccccc2-c2c1nc1ccccc1[n+]2[O-]
- T/C (dose: 6.25 mg/kg/injection, schedule: Q01DX005 (ip), vehicle: saline): 102 % of control
- T/C (dose: 12.5 mg/kg/injection, schedule: Q01DX005 (ip), vehicle: saline): 103 % of control
- T/C (dose: 25.0 mg/kg/injection, schedule: Q01DX005 (ip), vehicle: saline): 96 % of control

Structure (SMILES): S=C=NP1(N=C=S)=NP(N=C=S)(N=C=S)=NP(N=C=S)(N=C=S)=NP(N=C=S)(N=C=S)=N1 (centres undefined)
- T/C (dose: 12.5 mg/kg/injection, schedule: Q01DX005 (ip), vehicle: saline with Tween-80): 100 % of control
- T/C (dose: 25.0 mg/kg/injection, schedule: Q01DX005 (ip), vehicle: saline with Tween-80): 99 % of control
- T/C [1]: 104 % of control and 109 % of control
- T/C [2]: 114 % of control

Structure (SMILES): CN1C(=O)C(=O)N(C)C(=O)C1=O
- T/C [11]: 100 % of control
- T/C [12]: 93 % of control
- T/C (dose: 200.0 mg/kg/injection, schedule: Q01DX005 (ip), vehicle: Klucel (hydroxypropylcellulose) (HPC)): 103 % of control

Structure (SMILES): CCOC(=O)c1ccc(Nc2sc(C(=O)c3ccc(Br)cc3)c(N)c2C#N)cc1
- T/C [8]: 100 % of control
- T/C [9]: 108 % of control
- T/C [10]: 90 % of control
- T/C (dose: 400.0 mg/kg/injection, schedule: Q01DX009 (ip), vehicle: saline with Tween-80): 86 % of control

Structure (SMILES): C=Cn1c([N+](=O)[O-])cnc1/C=C\c1ccc(C(=O)NC(C)C)cc1
- T/C (dose: 100.0 mg/kg/injection, schedule: Q04DX002 (ip), vehicle: gum acacia): 92 % of control
- T/C (dose: 200.0 mg/kg/injection, schedule: Q04DX002 (ip), vehicle: gum acacia): 96 % of control
- T/C (dose: 400.0 mg/kg/injection, schedule: Q04DX002 (ip), vehicle: gum acacia): 92 % of control

Structure (SMILES): COC(=O)C1C2CCC1C2 (centres undefined)
- T/C (dose: 25.0 mg/kg/injection, schedule: Q01DX009 (ip), vehicle: other): 97 % of control
- T/C (dose: 50.0 mg/kg/injection, schedule: Q01DX009 (ip), vehicle: other): 110 % of control
- T/C (dose: 100.0 mg/kg/injection, schedule: Q01DX009 (ip), vehicle: other): 105 % of control
- T/C (dose: 200.0 mg/kg/injection, schedule: Q01DX009 (ip), vehicle: other): 107 % of control
- T/C (dose: 400.0 mg/kg/injection, schedule: Q01DX009 (ip), vehicle: other): 110 % of control

Structure (SMILES): O=C(Nn1nnnc1-c1ccccc1)c1ccccc1
- T/C (dose: 25.0 mg/kg/injection, schedule: Q01DX005 (ip), vehicle: Klucel (hydroxypropylcellulose) (HPC)): 97 % of control
- T/C [11]: 92 % of control
- T/C [12]: 101 % of control

Structure (SMILES): Nc1ccc(/C=C/c2ccc3cccnc3c2)cc1
- T/C (dose: 12.5 mg/kg/injection, schedule: Q01DX009 (ip), vehicle: DMSO): 108 % of control
- T/C (dose: 25.0 mg/kg/injection, schedule: Q01DX009 (ip), vehicle: DMSO): 97 % of control
- T/C (dose: 50.0 mg/kg/injection, schedule: Q01DX009 (ip), vehicle: DMSO): 101 % of control

Structure (SMILES): CC(O)CNC(=O)Nc1ccccc1 (centres undefined)
- T/C (dose: 60.0 mg/kg/injection, schedule: Q01DX005 (ip), vehicle: Klucel (hydroxypropylcellulose) (HPC)): 97 % of control
- T/C (dose: 120.0 mg/kg/injection, schedule: Q01DX005 (ip), vehicle: Klucel (hydroxypropylcellulose) (HPC)): 95 % of control
- T/C (dose: 240.0 mg/kg/injection, schedule: Q01DX005 (ip), vehicle: Klucel (hydroxypropylcellulose) (HPC)): 88 % of control

Structure (SMILES): Cc1c([O-])[n+](Cc2ccccc2)nn1C
- T/C (dose: 25.0 mg/kg/injection, schedule: Q01DX009 (ip), vehicle: water): 89 % of control

Structure (SMILES): Nc1ccc2c(c1)C(=O)N(OS(=O)(=O)c1ccccc1)C2=O
- T/C [3]: 106 % of control
- T/C [4]: 107 % of control
- T/C [5]: 88 % of control

Structure (SMILES): CNC(=S)N/N=C/c1nc2ccccc2c(=O)n1-c1ccc(Cl)cc1
- T/C (dose: 100.0 mg/kg/injection, schedule: Q01DX001 (ip), vehicle: saline with Tween-80): 102 % of control
- T/C (dose: 200.0 mg/kg/injection, schedule: Q01DX001 (ip), vehicle: saline with Tween-80): 98 % of control
- T/C (dose: 400.0 mg/kg/injection, schedule: Q01DX001 (ip), vehicle: saline with Tween-80): 92 % of control

Structure (SMILES): O=C1C=C(NCCc2cc3c(cc2Br)OCO3)CCC1
- T/C (dose: 100.0 mg/kg/injection, schedule: Q04DX002 (ip), vehicle: saline with Tween-80): 97 % of control
- T/C (dose: 200.0 mg/kg/injection, schedule: Q04DX002 (ip), vehicle: saline with Tween-80): 91 % of control
- T/C (dose: 400.0 mg/kg/injection, schedule: Q04DX002 (ip), vehicle: saline with Tween-80): 95 % of control
